According to ChEMBL document CHEMBL1255530, “3D-QSAR CoMFA study of benzoxazepine derivatives as mGluR5 positive allosteric modulators” (Bioorg Med Chem Lett, 2010):

biological target: Metabotropic glutamate receptor 5 (Rattus norvegicus, UniProt P31424); assay: Positive allosteric modulation of rat mGluR5 expressed in HEK293 cells
Sequence (P31424 whole entry): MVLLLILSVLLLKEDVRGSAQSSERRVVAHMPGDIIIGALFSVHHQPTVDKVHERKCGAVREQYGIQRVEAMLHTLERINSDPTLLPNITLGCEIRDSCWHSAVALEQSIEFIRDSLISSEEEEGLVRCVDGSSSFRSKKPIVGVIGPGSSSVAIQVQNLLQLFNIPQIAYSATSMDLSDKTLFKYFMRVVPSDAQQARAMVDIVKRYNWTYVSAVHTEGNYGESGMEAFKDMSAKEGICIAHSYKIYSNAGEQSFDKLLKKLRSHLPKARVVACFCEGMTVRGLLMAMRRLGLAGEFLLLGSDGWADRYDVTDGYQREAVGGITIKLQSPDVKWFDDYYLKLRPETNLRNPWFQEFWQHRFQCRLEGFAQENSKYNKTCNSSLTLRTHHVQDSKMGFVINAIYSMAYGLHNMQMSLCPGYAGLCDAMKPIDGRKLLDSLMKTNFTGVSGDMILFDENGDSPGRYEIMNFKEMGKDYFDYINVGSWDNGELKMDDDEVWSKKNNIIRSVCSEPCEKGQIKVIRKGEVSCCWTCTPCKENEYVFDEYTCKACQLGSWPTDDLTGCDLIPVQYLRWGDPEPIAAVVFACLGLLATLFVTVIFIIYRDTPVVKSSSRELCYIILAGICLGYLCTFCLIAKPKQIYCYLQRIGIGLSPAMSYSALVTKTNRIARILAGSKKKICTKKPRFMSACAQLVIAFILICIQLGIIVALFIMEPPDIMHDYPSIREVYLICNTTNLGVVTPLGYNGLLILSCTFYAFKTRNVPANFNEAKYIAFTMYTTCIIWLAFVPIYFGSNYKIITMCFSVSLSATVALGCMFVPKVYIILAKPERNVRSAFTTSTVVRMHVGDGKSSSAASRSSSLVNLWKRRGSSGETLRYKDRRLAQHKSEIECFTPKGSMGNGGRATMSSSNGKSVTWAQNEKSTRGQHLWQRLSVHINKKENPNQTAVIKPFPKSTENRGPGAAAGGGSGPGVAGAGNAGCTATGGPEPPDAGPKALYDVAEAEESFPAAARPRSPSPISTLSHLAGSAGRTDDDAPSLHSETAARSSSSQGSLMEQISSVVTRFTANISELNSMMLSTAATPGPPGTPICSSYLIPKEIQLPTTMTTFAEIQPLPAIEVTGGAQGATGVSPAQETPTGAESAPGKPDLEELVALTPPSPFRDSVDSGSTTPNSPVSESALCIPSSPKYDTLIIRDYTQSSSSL

Question: `CCOC(=O)COc1ccccc1[C@@H]1Oc2nc(SC)nnc2-c2ccccc2N1C(=O)CC` was tested. Which EC50 did it give?
Answer: 2190 nM

Question: Which EC50 does the source give for `CCCOc1ccccc1[C@@H]1Oc2nc(SCC)nnc2-c2ccccc2N1C(C)=O` here?
Answer: 1120 nM

Question: Which EC50 does the source give for `CSc1nnc2c(n1)O[C@@H](c1cccc(C)n1)N(C(C)=O)c1ccccc1-2` here?
Answer: 7590 nM

Question: For `CCOc1cc([C@@H]2Oc3nc(SC)nnc3-c3ccccc3N2C(=O)CC)ccc1OC(=O)CC`, which EC50 is on record?
Answer: 2820 nM

Question: Which EC50 does the source give for `CCSc1nnc2c(n1)O[C@@H](c1cc(OC(C)=O)ccc1Cl)N(C(C)=O)c1ccccc1-2` here?
Answer: 3800 nM

Question: With `CCCC(=O)N1c2ccccc2-c2nnc(SC)nc2O[C@H]1c1cccc(C)n1` as the molecule, how does the EC50 read?
Answer: 1950 nM

Question: Which EC50 does the source give for `CCC(=O)N1c2ccccc2-c2nnc(SC)nc2O[C@H]1c1ccc(I)o1` here?
Answer: 1410 nM

Question: `CCCC(=O)N1c2ccccc2-c2nnc(SCC)nc2O[C@H]1c1cccs1` was tested. Which EC50 did it give?
Answer: 263 nM

Question: `CCC(=O)N1c2ccccc2-c2nnc(SC)nc2O[C@H]1c1cc2c(cc1Cl)OCO2` was tested. Which EC50 did it give?
Answer: 5250 nM

Question: For `CCC(=O)N1c2ccccc2-c2nnc(SC)nc2O[C@H]1c1ccc(OC)c(C)c1`, which EC50 is on record?
Answer: 3630 nM

Question: `CCCSc1nnc2c(n1)O[C@@H](c1cc(OC)c(OC)cc1Cl)N(C(C)=O)c1ccccc1-2` was tested. Which EC50 did it give?
Answer: 1200 nM

Question: How did the EC50 turn out when `CCSc1nnc2c(n1)O[C@@H](C)N(C(C)=O)c1ccccc1-2` was run?
Answer: 13800 nM

Question: How did the EC50 turn out when `CCCC(=O)N1c2ccccc2-c2nnc(SC)nc2O[C@H]1c1cccc(OC)c1` was run?
Answer: 1020 nM

Question: How did the EC50 turn out when `CCCC(=O)N1c2ccccc2-c2nnc(SC)nc2O[C@H]1c1cccs1` was run?
Answer: 871 nM

Question: For `C=CCSc1nnc2c(n1)O[C@@H](c1ccc(OCC)c(OC)c1)N(C(C)=O)c1ccccc1-2`, which EC50 is on record?
Answer: 692 nM

Question: How did the EC50 turn out when `CCOc1cc([C@@H]2Oc3nc(SC)nnc3-c3ccccc3N2C(=O)CC)cc(Br)c1OC` was run?
Answer: 7080 nM

Question: For `C=CCSc1nnc2c(n1)O[C@@H](c1ccccc1)N(C(C)=O)c1ccccc1-2`, which EC50 is on record?
Answer: 95.5 nM

Question: How did the EC50 turn out when `CCSc1nnc2c(n1)O[C@@H](c1ccc(Cl)cc1)N(C(C)=O)c1ccccc1-2` was run?
Answer: 676 nM

Question: With `CCCCSc1nnc2c(n1)O[C@@H](c1cccc(F)c1)N(C(C)=O)c1ccccc1-2` as the molecule, how does the EC50 read?
Answer: 513 nM

Question: `CCSc1nnc2c(n1)O[C@@H](c1ccc(SC)cc1)N(C(=O)CC)c1ccccc1-2` was tested. Which EC50 did it give?
Answer: 1230 nM

Question: `CCSc1nnc2c(n1)O[C@@H](c1cc(Cl)ccc1OC(C)=O)N(C(C)=O)c1ccccc1-2` was tested. Which EC50 did it give?
Answer: 1580 nM

Question: Which EC50 does the source give for `CCSc1nnc2c(n1)O[C@@H](/C=C/c1ccco1)N(C(C)=O)c1ccccc1-2` here?
Answer: 1170 nM

Question: With `CCSc1nnc2c(n1)O[C@@H](c1cc(Br)ccc1OC)N(C(C)=O)c1ccccc1-2` as the molecule, how does the EC50 read?
Answer: 120 nM

Question: `CCC(=O)Oc1ccc([C@@H]2Oc3nc(SC)nnc3-c3ccccc3N2C(=O)CC)cc1` was tested. Which EC50 did it give?
Answer: 3630 nM

Question: Which EC50 does the source give for `CCOc1cc([C@@H]2Oc3nc(SC)nnc3-c3ccccc3N2C(=O)CC)ccc1OC` here?
Answer: 1380 nM

Question: With `CCSc1nnc2c(n1)O[C@H](c1cc3c(cc1Br)OCO3)N(C(C)=O)c1ccccc1-2` as the molecule, how does the EC50 read?
Answer: 4270 nM

Question: For `CCCC(=O)N1c2ccccc2-c2nnc(SC)nc2O[C@H]1c1cccnc1`, which EC50 is on record?
Answer: 3890 nM

Question: How did the EC50 turn out when `CSc1nnc2c(n1)O[C@H](c1cn(C(C)=O)c3ccccc13)N(C(C)=O)c1ccccc1-2` was run?
Answer: 871 nM

Question: `CCSc1nnc2c(n1)O[C@@H](c1cccs1)N(C(=O)CC)c1ccccc1-2` was tested. Which EC50 did it give?
Answer: 309 nM

Question: For `C=CCSc1nnc2c(n1)O[C@@H](c1cc(Br)c(OC(C)=O)c(OC)c1)N(C(C)=O)c1ccccc1-2`, which EC50 is on record?
Answer: 3310 nM

Question: With `CCOc1ccccc1[C@@H]1Oc2nc(SC)nnc2-c2ccccc2N1C(C)=O` as the molecule, how does the EC50 read?
Answer: 1230 nM

Question: How did the EC50 turn out when `CCC(=O)N1c2ccccc2-c2nnc(SC)nc2O[C@H]1c1ccc(OC)cc1` was run?
Answer: 2190 nM

Question: For `C=CCSc1nnc2c(n1)O[C@@H](/C=C/c1ccccc1)N(C(C)=O)c1ccccc1-2`, which EC50 is on record?
Answer: 1700 nM

Question: Which EC50 does the source give for `CSc1nnc2c(n1)O[C@@H](c1ccsc1)N(C(C)=O)c1ccccc1-2` here?
Answer: 1020 nM

Question: With `CSc1nnc2c(n1)O[C@@H](c1ccc(Br)cc1)N(C(C)=O)c1ccccc1-2` as the molecule, how does the EC50 read?
Answer: 1510 nM

Question: With `CCCCSc1nnc2c(n1)O[C@@H](CC)N(C(C)=O)c1ccccc1-2` as the molecule, how does the EC50 read?
Answer: 3980 nM

Question: For `CSc1nnc2c(n1)O[C@@H](c1ccc(Cl)cc1)N(C(C)=O)c1ccccc1-2`, which EC50 is on record?
Answer: 2090 nM

Question: Which EC50 does the source give for `CCCC(=O)N1c2ccccc2-c2nnc(SC)nc2O[C@H]1c1ccc(C(=O)OC)cc1` here?
Answer: 2240 nM

Question: For `C=CCSc1nnc2c(n1)O[C@@H](c1cc(C)ccc1OC(C)=O)N(C(C)=O)c1ccccc1-2`, which EC50 is on record?
Answer: 891 nM

Question: `CSc1nnc2c(n1)O[C@@H](c1ccc(C)cc1)N(C(C)=O)c1ccccc1-2` was tested. Which EC50 did it give?
Answer: 2750 nM

Question: Which EC50 does the source give for `C=CCSc1nnc2c(n1)O[C@@H](c1ccccc1F)N(C(C)=O)c1ccccc1-2` here?
Answer: 1120 nM

Question: For `CCSc1nnc2c(n1)O[C@@H](c1ccco1)N(C(=O)CC)c1ccccc1-2`, which EC50 is on record?
Answer: 813 nM

Question: For `C=CCSc1nnc2c(n1)O[C@@H](c1ccccn1)N(C(C)=O)c1ccccc1-2`, which EC50 is on record?
Answer: 562 nM

Question: Which EC50 does the source give for `C=CCOc1ccc([C@@H]2Oc3nc(SCC=C)nnc3-c3ccccc3N2C(C)=O)cc1` here?
Answer: 1200 nM

Question: For `C=CCSc1nnc2c(n1)O[C@@H](c1ccc(C)s1)N(C(C)=O)c1ccccc1-2`, which EC50 is on record?
Answer: 331 nM

Question: How did the EC50 turn out when `CCC(=O)N1c2ccccc2-c2nnc(SC)nc2O[C@H]1c1ccc(OC)c(Br)c1` was run?
Answer: 1100 nM

Question: Which EC50 does the source give for `CCC(=O)N1c2ccccc2-c2nnc(SC)nc2O[C@H]1c1cc(OC)c(OC)c(OC)c1` here?
Answer: 832 nM

Question: For `CCC(=O)N1c2ccccc2-c2nnc(SC)nc2O[C@H]1c1ccc(C)s1`, which EC50 is on record?
Answer: 1950 nM

Question: Which EC50 does the source give for `CCSc1nnc2c(n1)O[C@@H](c1cccc(OC)c1)N(C(=O)CC)c1ccccc1-2` here?
Answer: 107 nM

Question: With `CSc1nnc2c(n1)O[C@@H](c1cn(C)c3ccccc13)N(C(C)=O)c1ccccc1-2` as the molecule, how does the EC50 read?
Answer: 1820 nM

Question: With `CCCSc1nnc2c(n1)O[C@@H](CC)N(C(C)=O)c1ccccc1-2` as the molecule, how does the EC50 read?
Answer: 6760 nM

Question: For `CCSc1nnc2c(n1)O[C@H](c1cccnc1)N(C(C)=O)c1ccccc1-2`, which EC50 is on record?
Answer: 1820 nM

Question: With `CCCC(=O)N1c2ccccc2-c2nnc(SC)nc2O[C@H]1c1ccc(OC)cc1OC` as the molecule, how does the EC50 read?
Answer: 2090 nM

Question: For `CCOc1cc([C@@H]2Oc3nc(SCC)nnc3-c3ccccc3N2C(C)=O)ccc1OC(C)=O`, which EC50 is on record?
Answer: 1950 nM

Question: With `CCSc1nnc2c(n1)O[C@@H](c1cccn1C)N(C(=O)CC)c1ccccc1-2` as the molecule, how does the EC50 read?
Answer: 1260 nM

Question: `CCC(=O)N1c2ccccc2-c2nnc(SC)nc2O[C@H]1c1ccccn1` was tested. Which EC50 did it give?
Answer: 7410 nM

Question: For `CCSc1nnc2c(n1)O[C@@H](c1ccco1)N(C(C)=O)c1ccccc1-2`, which EC50 is on record?
Answer: 871 nM

Question: With `CCSc1nnc2c(n1)O[C@@H](c1ccccn1)N(C(=O)CC)c1ccccc1-2` as the molecule, how does the EC50 read?
Answer: 4370 nM

Question: Which EC50 does the source give for `CSc1nnc2c(n1)O[C@@H](c1cccc(OCc3ccccc3)c1)N(C(C)=O)c1ccccc1-2` here?
Answer: 3310 nM

Question: Which EC50 does the source give for `CSc1nnc2c(n1)O[C@@H](c1cccc(Oc3ccccc3)c1)N(C(C)=O)c1ccccc1-2` here?
Answer: 2950 nM

Question: With `C=CCSc1nnc2c(n1)O[C@@H](c1ccccc1OCCC)N(C(C)=O)c1ccccc1-2` as the molecule, how does the EC50 read?
Answer: 1320 nM

Question: With `CCC(=O)N1c2ccccc2-c2nnc(SC)nc2O[C@H]1c1ccc(Cl)cc1` as the molecule, how does the EC50 read?
Answer: 871 nM

Question: `CSc1nnc2c(n1)O[C@@H](c1ccccc1C)N(C(C)=O)c1ccccc1-2` was tested. Which EC50 did it give?
Answer: 3020 nM

Question: `C=CCSc1nnc2c(n1)O[C@@H](c1ccco1)N(C(C)=O)c1ccccc1-2` was tested. Which EC50 did it give?
Answer: 1020 nM

Question: How did the EC50 turn out when `CCCSc1nnc2c(n1)O[C@@H](c1ccccc1F)N(C(=O)CC)c1ccccc1-2` was run?
Answer: 646 nM

Question: With `C=CCSc1nnc2c(n1)O[C@@H](c1ccc(OC)c(OC)c1OC)N(C(C)=O)c1ccccc1-2` as the molecule, how does the EC50 read?
Answer: 7760 nM

Question: For `C=CCSc1nnc2c(n1)O[C@@H](c1ccc(OC(C)=O)c(OCC)c1)N(C(C)=O)c1ccccc1-2`, which EC50 is on record?
Answer: 1260 nM

Question: Which EC50 does the source give for `CCSc1nnc2c(n1)O[C@@H](c1cccc(C)c1OC(C)=O)N(C(C)=O)c1ccccc1-2` here?
Answer: 2820 nM

Question: `CCSc1nnc2c(n1)O[C@@H](c1ccc(OCc3ccccc3)cc1)N(C(C)=O)c1ccccc1-2` was tested. Which EC50 did it give?
Answer: 6030 nM

Question: Which EC50 does the source give for `CCC(=O)N1c2ccccc2-c2nnc(SC)nc2O[C@H]1c1ccc(Br)s1` here?
Answer: 1120 nM
